We go through 13 compounds from ChEMBL document CHEMBL5291721, “A preclinical secondary pharmacology resource illuminates target-adverse drug reaction associations of marketed drugs” (Nat Commun, 2023).

One experiment deals with D(1A) dopamine receptor (Homo sapiens, UniProt P21728). It counts as functional, cell-based.
Experiment [1] concerns the target T1, Neuropeptide Y receptor type 1 (Homo sapiens, UniProt P25929).
T1 sequence (P25929 whole entry): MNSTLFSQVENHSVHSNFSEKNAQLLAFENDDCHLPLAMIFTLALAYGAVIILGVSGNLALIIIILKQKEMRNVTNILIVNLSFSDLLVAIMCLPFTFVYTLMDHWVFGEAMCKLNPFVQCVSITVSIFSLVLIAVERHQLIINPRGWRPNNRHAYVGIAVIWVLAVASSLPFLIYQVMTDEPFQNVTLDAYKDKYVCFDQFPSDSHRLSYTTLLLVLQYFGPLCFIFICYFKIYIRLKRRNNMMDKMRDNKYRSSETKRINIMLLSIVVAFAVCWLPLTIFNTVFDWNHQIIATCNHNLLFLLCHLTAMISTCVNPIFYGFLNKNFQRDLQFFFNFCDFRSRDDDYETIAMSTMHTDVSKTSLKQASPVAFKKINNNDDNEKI

Experiment [2] concerns the target T2, Alpha-2C adrenergic receptor (Homo sapiens, UniProt P18825).
T2 sequence (P18825 whole entry): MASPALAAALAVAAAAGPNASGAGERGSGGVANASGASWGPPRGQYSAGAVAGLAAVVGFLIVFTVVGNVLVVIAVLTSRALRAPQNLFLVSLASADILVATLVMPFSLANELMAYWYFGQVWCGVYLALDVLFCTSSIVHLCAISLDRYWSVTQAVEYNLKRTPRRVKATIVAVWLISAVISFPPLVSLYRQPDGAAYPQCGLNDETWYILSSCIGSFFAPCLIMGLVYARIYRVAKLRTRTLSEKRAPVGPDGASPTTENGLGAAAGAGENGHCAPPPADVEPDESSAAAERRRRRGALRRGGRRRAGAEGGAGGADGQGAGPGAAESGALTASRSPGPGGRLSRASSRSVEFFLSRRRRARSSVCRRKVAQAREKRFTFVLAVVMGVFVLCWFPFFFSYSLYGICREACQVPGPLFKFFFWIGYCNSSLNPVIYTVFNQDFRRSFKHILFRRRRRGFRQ
It counts as functional.

The target in another experiment is T3, Estrogen receptor (Homo sapiens, UniProt P03372).
T3 sequence (P03372 whole entry): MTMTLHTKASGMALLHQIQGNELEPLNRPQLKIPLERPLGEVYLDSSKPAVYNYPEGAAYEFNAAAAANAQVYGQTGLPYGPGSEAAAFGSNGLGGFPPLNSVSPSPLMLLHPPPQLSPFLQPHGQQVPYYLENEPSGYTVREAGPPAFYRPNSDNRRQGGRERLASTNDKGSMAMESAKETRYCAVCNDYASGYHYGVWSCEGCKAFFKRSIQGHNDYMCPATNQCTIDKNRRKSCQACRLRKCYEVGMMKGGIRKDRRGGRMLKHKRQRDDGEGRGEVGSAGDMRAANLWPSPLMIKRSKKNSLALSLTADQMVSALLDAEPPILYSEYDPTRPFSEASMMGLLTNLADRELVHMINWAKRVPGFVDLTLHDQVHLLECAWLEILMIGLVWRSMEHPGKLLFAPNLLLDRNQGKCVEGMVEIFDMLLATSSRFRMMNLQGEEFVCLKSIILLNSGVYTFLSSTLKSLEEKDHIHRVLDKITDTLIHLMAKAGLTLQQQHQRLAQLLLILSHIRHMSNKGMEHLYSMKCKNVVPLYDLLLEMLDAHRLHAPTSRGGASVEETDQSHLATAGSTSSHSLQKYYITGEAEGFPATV

The target in the next experiment is Histamine H3 receptor (Homo sapiens, UniProt Q9Y5N1).
Chain of Histamine H3 receptor (Q9Y5N1 whole entry): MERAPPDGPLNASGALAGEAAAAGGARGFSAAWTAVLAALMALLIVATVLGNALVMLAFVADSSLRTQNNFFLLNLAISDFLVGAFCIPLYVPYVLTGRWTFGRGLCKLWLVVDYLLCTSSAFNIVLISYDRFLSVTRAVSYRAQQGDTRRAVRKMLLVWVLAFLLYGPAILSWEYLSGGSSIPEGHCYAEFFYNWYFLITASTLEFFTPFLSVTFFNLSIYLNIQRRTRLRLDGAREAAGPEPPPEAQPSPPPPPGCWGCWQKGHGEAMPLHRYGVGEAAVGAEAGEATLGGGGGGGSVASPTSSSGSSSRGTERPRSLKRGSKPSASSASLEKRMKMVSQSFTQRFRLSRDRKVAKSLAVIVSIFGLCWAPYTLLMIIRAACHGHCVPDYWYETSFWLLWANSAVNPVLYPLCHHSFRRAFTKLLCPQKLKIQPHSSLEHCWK
The target in experiment [3] is 3',5'-cyclic-AMP phosphodiesterase 4D (Homo sapiens, UniProt Q08499). The format is functional.
Chain of 3',5'-cyclic-AMP phosphodiesterase 4D (Q08499 whole entry): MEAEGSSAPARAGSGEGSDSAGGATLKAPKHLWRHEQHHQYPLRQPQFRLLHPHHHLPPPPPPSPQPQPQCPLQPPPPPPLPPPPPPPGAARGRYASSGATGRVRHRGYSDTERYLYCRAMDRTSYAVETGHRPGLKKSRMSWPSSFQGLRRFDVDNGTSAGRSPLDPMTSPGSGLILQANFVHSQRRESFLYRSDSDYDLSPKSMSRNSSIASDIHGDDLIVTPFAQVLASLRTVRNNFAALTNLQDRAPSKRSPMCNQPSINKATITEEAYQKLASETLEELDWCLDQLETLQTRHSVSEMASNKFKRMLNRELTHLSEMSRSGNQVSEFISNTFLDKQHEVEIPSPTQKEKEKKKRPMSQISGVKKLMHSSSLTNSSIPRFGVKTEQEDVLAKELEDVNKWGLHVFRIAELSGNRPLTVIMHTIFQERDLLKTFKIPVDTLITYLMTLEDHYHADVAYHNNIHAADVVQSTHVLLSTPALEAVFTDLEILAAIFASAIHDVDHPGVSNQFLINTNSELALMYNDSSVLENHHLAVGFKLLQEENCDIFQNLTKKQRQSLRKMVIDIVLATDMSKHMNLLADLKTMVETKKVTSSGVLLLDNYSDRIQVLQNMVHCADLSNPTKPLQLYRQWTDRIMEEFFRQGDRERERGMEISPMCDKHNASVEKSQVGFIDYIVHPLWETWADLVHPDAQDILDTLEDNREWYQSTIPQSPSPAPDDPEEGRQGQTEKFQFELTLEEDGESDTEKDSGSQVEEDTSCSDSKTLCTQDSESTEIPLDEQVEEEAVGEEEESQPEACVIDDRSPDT
In experiment [4] the target is cGMP-inhibited 3',5'-cyclic phosphodiesterase 3A (Homo sapiens, UniProt Q14432). The format is functional.
Chain of cGMP-inhibited 3',5'-cyclic phosphodiesterase 3A (Q14432 whole entry): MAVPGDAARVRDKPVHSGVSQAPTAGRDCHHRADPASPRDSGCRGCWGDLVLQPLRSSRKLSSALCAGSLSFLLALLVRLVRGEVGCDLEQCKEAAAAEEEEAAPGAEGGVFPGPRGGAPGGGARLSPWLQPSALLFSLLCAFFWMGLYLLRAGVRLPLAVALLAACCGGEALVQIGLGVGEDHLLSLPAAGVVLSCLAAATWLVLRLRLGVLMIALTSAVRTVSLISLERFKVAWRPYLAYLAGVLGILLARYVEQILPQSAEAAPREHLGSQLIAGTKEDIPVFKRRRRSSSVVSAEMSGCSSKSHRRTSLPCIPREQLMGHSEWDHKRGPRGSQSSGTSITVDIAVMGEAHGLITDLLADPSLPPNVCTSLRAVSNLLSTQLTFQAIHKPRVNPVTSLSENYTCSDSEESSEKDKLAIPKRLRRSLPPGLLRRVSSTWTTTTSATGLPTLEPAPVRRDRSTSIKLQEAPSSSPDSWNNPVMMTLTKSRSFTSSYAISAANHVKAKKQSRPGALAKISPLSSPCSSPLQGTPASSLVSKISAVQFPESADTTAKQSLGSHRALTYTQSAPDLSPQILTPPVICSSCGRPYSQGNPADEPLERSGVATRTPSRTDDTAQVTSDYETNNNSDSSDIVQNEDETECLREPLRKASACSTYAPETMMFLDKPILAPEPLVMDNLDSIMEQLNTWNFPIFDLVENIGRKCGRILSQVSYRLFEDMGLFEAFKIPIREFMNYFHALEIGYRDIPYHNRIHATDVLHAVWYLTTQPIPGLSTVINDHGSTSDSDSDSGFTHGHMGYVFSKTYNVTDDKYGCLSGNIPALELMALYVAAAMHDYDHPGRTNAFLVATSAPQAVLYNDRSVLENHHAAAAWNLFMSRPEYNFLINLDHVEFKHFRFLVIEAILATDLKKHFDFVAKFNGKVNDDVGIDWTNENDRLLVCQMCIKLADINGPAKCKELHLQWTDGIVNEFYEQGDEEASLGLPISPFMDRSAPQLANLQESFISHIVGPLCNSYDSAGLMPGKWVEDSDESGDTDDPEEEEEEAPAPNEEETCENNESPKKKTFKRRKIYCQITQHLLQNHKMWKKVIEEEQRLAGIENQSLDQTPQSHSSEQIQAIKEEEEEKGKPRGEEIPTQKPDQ
Experiment [5] concerns the target Delta-type opioid receptor (Homo sapiens, UniProt P41143).
The target of the next experiment is T4, Adenosine receptor A1 (Homo sapiens, UniProt P30542).
T4 sequence (P30542 whole entry): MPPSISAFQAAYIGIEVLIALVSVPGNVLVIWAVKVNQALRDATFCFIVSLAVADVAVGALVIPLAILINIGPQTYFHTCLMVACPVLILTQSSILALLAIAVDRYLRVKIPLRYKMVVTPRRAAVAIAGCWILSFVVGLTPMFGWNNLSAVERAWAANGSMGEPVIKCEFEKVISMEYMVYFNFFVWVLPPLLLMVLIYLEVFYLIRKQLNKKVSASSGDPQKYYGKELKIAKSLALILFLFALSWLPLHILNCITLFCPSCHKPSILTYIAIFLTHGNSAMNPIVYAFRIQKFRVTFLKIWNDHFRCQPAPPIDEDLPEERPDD

For experiment [6], the target named is T5, Alpha-2B adrenergic receptor (Homo sapiens, UniProt P18089).
T5 sequence (P18089 whole entry): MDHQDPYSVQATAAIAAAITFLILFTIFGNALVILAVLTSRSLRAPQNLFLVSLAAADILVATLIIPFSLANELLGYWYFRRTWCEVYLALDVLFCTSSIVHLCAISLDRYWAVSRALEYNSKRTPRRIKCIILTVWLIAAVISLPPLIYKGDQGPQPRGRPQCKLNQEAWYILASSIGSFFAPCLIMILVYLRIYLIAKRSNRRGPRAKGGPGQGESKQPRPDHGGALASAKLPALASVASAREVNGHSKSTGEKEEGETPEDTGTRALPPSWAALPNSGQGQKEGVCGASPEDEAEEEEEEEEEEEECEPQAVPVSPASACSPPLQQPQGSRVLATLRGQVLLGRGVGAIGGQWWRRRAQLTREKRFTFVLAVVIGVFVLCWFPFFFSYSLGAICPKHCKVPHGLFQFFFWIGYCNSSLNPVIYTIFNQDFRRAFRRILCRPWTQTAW

Each structure is given as a SMILES string.
Note: assay procedure not described here.

Chain of D(1A) dopamine receptor (P21728 whole entry): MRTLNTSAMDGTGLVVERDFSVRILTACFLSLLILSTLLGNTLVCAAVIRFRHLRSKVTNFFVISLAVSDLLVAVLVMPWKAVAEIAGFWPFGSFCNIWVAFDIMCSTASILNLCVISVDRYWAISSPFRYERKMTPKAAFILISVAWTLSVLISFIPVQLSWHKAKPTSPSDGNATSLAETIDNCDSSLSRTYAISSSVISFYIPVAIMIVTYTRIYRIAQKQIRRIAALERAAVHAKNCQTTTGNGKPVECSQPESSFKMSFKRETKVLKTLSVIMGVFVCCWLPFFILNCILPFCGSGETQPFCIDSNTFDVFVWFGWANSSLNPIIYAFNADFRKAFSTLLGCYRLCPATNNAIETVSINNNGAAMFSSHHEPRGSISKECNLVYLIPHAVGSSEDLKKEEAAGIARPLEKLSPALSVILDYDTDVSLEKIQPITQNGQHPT
Chain of Delta-type opioid receptor (P41143 whole entry): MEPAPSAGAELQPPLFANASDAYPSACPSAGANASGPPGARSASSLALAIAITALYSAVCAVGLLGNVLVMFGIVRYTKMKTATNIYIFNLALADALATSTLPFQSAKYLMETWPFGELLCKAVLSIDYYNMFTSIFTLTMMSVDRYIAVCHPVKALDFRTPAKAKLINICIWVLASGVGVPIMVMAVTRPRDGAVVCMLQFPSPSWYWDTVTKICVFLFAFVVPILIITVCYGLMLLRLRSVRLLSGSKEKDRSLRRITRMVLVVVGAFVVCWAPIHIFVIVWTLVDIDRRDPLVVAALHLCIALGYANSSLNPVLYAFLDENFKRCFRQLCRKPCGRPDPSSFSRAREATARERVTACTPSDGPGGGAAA

The AC50 is the midpoint of the concentration-response curve, whichever way the signal moves. A lower AC50 goes with greater potency. As for `CCCCCCCCCCCC[N+](C)(C)CCOc1ccccc1` [DOMIPHEN], the AC50 at D(1A) dopamine receptor is more than 30 µM; in [1] it was 4.4 µM; in experiment [2] it was 4.2 µM; at Estrogen receptor, 5 µM; at Histamine H3 receptor it was 12 µM; in experiment [3] it was 12 µM. Besides, the AC50 in [4] is more than 30 µM; in experiment [5] it was more than 30 µM; at Adenosine receptor A1, more than 30 µM; in experiment [6] it was 3.8 µM.
Take `CN[C@@H](C)[C@H](O)c1ccccc1` [EPHEDRINE]: the AC50 on D(1A) dopamine receptor is more than 10 µM; in [1] it was more than 30 µM; in experiment [2] it was more than 10 µM; on Estrogen receptor it was more than 30 µM; at Histamine H3 receptor, more than 10 µM; in experiment [3], more than 30 µM. Besides, the AC50 in experiment [4] is more than 30 µM; in experiment [5], more than 30 µM; on Adenosine receptor A1, more than 30 µM; in experiment [6] it was more than 10 µM.
As to `C#CC1(OC(N)=O)CCCCC1` [ETHINAMATE], the AC50 at D(1A) dopamine receptor was more than 10 µM; in [1] it was more than 10 µM; in experiment [2], more than 10 µM; on Estrogen receptor, more than 10 µM; at Histamine H3 receptor, more than 10 µM; in experiment [3] it was more than 30 µM. For the same compound, the AC50 is more than 30 µM in experiment [4], more than 30 µM in experiment [5], more than 10 µM at Adenosine receptor A1 and more than 10 µM in experiment [6].
In the case of `O=C1CN=C(c2ccccc2)c2cc(Cl)ccc2N1CC(F)(F)F` [HALAZEPAM], the AC50 (on D(1A) dopamine receptor; in [1]; in experiment [2]; at Estrogen receptor; on Histamine H3 receptor; in experiment [3]) was more than 30 µM each time. Moreover, the concentration at half-maximal activity (AC50) (in [4]; in experiment [5]; at Adenosine receptor A1; in [6]) was more than 30 µM throughout.
As for `CCC1(C2=CCCCCC2)C(=O)NC(=O)NC1=O` [HEPTABARBITAL], the AC50 on D(1A) dopamine receptor is more than 10 µM; in experiment [1], more than 10 µM; in experiment [2], more than 10 µM; on Estrogen receptor, more than 10 µM; at Histamine H3 receptor, more than 10 µM; in experiment [3], more than 30 µM. The AC50 in [4] is more than 30 µM; in experiment [5], more than 30 µM; on Adenosine receptor A1, more than 10 µM; in experiment [6], more than 10 µM.
Turning to `CCCCCN(C)CCC(O)(P(=O)(O)O)P(=O)(O)O` [IBANDRONIC ACID], the AC50 (at D(1A) dopamine receptor; in experiment [1]; in experiment [2]; on Estrogen receptor; on Histamine H3 receptor; in experiment [3]) was more than 30 µM in each case. Further, the AC50 is 1.9 µM in [4], more than 30 µM in experiment [5], more than 30 µM at Adenosine receptor A1 and more than 30 µM in experiment [6].
For `C1=Cc2cccc(OCC3CNCCO3)c2C1` (stereo not given) [INDELOXAZINE], the half-maximal activity concentration (AC50) (on D(1A) dopamine receptor; in experiment [1]; in [2]; at Estrogen receptor; on Histamine H3 receptor; in experiment [3]) was more than 30 µM in each case. In addition, the AC50 was more than 30 µM in experiment [4], 22 µM in experiment [5], more than 30 µM on Adenosine receptor A1 and more than 30 µM in experiment [6].
As for `COc1ccc(C(=O)NCc2ccc(OCCN(C)C)cc2)cc1OC` [ITOPRIDE], the AC50 on D(1A) dopamine receptor is more than 30 µM; in experiment [1] it was more than 30 µM; in [2], more than 30 µM; at Estrogen receptor it was more than 30 µM; on Histamine H3 receptor, 19 µM; in [3], more than 30 µM. In addition, the AC50 (in experiment [4]; in [5]; at Adenosine receptor A1; in experiment [6]) was more than 30 µM in each case.
As to `O=C(O)Cc1cn(-c2ccccc2)nc1-c1ccc(Cl)cc1` [LONAZOLAC], the AC50 (on D(1A) dopamine receptor; in experiment [1]; in experiment [2]; on Estrogen receptor; on Histamine H3 receptor; in experiment [3]) was more than 30 µM throughout. Further, the AC50 (in [4]; in experiment [5]; at Adenosine receptor A1; in [6]) was more than 30 µM in each case.
As for `C#C[C@]1(O)CC[C@H]2[C@@H]3CCC4=CCCC[C@@H]4[C@H]3CC[C@@]21C` [LYNESTRENOL], the AC50 (on D(1A) dopamine receptor; in experiment [1]; in experiment [2]; at Estrogen receptor; at Histamine H3 receptor; in experiment [3]) was more than 30 µM in each case. Also, the AC50 (in [4]; in [5]; on Adenosine receptor A1; in [6]) was more than 30 µM throughout.
For `Cc1cc(-c2ccccc2)nnc1NCCN1CCOCC1` [MINAPRINE], the AC50 at D(1A) dopamine receptor is more than 10 µM; in [1], more than 30 µM; in experiment [2] it was more than 10 µM; on Estrogen receptor it was more than 30 µM; at Histamine H3 receptor, more than 10 µM; in experiment [3] it was more than 30 µM. The half-maximal activity concentration (AC50) is more than 30 µM in [4], more than 30 µM in experiment [5], more than 30 µM on Adenosine receptor A1 and more than 10 µM in experiment [6].
Take `O=C(OCCN1CCOCC1)c1cccnc1Nc1cccc(C(F)(F)F)c1` [MORNIFLUMATE]: the concentration at half-maximal activity (AC50) is more than 30 µM at D(1A) dopamine receptor; more than 30 µM in experiment [1]; more than 30 µM in experiment [2]; more than 30 µM at Estrogen receptor; more than 30 µM at Histamine H3 receptor; 4.3 µM in experiment [3]. Further, the AC50 (in [4]; in experiment [5]; on Adenosine receptor A1; in experiment [6]) was more than 30 µM each time.
On to `CCCCCCC(C)(C)c1cc(O)c2c(c1)OC(C)(C)C1CCC(=O)CC21` (stereo not given) [NABILONE], for which the AC50 (on D(1A) dopamine receptor; in [1]; in [2]; on Estrogen receptor; at Histamine H3 receptor; in experiment [3]) was more than 30 µM throughout. The AC50 (in experiment [4]; in experiment [5]; at Adenosine receptor A1; in experiment [6]) was more than 30 µM in each case.
